Results published in US20250161338A1, “Compounds for Anti-aging Intervention” (AGENCY FOR SCIENCE, TECHNOLOGY AND RESEARCH, priority 2022, published 2025).
Entries after “also recorded” stand apart in the source; their conditions may differ.

What was measured:
[1] = test system: wild-type Saccharomyces cerevisiae CEN.PK113-7D yeast strain; assay: Chronological lifespan analysis in yeast (PI, outgrowth, spotting); format: cell-based
Method: (§1) Yeast strain was recovered from frozen glycerol stock at 30° C. on YPD agar medium. Yeast was left to propagate in SD medium overnight at 30° C. with shaking at 220 revolutions per minute (rpm). Cells propagated overnight were diluted to a starting optical density at 600 nm (OD600) of approximately 0.2 in fresh SD medium to begin the chronological lifespan (CLS) experiments.
CLS experiments were performed in 96-well plates with 200 μL yeast culture. Cellular inoculums were transferred into 96-well plates containing serially double-diluted concentrations (0 to 10 nM) of rapamycin. […] Cells were incubated at 30° C., and the growth was measured at different time points. The growth time point 72 hours was considered as Day 1 for the CLS assay. Cell survival was quantified at various age time points by three different approaches: (i) PI fluorescence-based method, (ii) outgrowth in YPD liquid medium, and (iii) spotting assay (FIG. 1).
Yeast cells (40 μL) from different age time points were transferred into a second 96-well plate (different to the 96-well plate in which the CLS analysis as outlined above was performed). Cells were washed and incubated in 100 μL 1×phosphate buffered saline (PBS) with propidium iodide (PI) (5 μg/mL) for 15 minutes in the dark. Positive and negative control samples were included for quantitative analysis. Positive control (cells boiled at 100° C. for 15 minutes) was PI-stained and processed in the same 96-well plate. Samples without PI-stained cells served as the negative control. After incubation, cells were washed and resuspended in 100 μL PBS. The fluorescence reading of the samples (excitation and emission wavelengths at 535 nm and 617 nm, respectively) and OD600 were measured with a microplate reader (BioTek, Winooski, Vermont, United States). The fluorescence intensity of each sample was normalized with OD600. The background fluorescence signal of the unstained negative sample was subtracted from the normalized fluorescence intensity of each sample. The obtained fluorescence intensity of the positive control (boiled dead cells) was considered 0% cell survival. Cell death was validated by allowing the boiled dead cells to grow in medium. Cell survival at different age time points of samples were calculated by normalizing the fluorescence intensity with positive control sample (boiled cells).
Yeast stationary culture (3 μL) of different age time points were transferred to a second 96-well plate, containing 200 μL YPD medium, and incubated for 24 hours at 30° C. Outgrowth (OD600) of aged cells was measured by the microplate reader. Quantification of cell survival for each age point was determined as relative to Day 1 (considered 100% cell survival). This quantification was performed by using the formula,
Yeast stationary culture (3 μL) of different age time points were spotted onto a YPD agar plate and incubated for 48 hours at 30° C. The outgrowth of aged cells on the YPD agar plate was photographed using the Bio-Rad GelDoc Imaging System (Bio-Rad, Hercules, California, United States).

[2] = test system: wild-type Saccharomyces cerevisiae CEN.PK113-7D yeast strain; assay: Yeast cell growth (OD600) in SD medium; format: cell-based; conditions: 0 to 8 mM; 24, 48 and 72 hours
Method: as §1
CLS experiments were performed in 96-well plates with 200 μL yeast culture. Cellular inoculums were transferred into 96-well plates containing serially double-diluted concentrations (0 to 10 nM) of rapamycin. Cellular inoculum was transferred into 96-well plates containing serially double-diluted concentrations (0 to 8 mM) of 2,5-anhydro-D-mannitol, D-fructose, D-mannitol, D-maltose, and D-sorbitol in SD medium. Cells were incubated at 30° C., and the growth was measured at different time points. The growth time point 72 hours was considered as Day 1 for the CLS assay. Cell survival was quantified at various age time points by three different approaches: (i) PI fluorescence-based method, (ii) outgrowth in YPD liquid medium, and (iii) spotting assay (FIG. 1).
Firstly, the effect of 2,5-AM on cell growth was determined. Yeast cells were incubated with varying concentrations of 2,5-AM in the SD medium. Cell growth was measured at different time points (24 hours, 48 hours, and 72 hours). […] Then, the survival of chronologically aged cells supplemented with different concentrations of 2,5-AM was measured using the PI fluorescence method. At each chronological age point, a 3 μL culture was transferred to a second 96-well plate containing 200 μL YPD medium. The 72-hour growth culture was considered Day 1 for the CLS analysis. The viability fraction was calculated, and a survival graph was plotted for different chronological age time points (FIG. 5). […] The survival of aged cells supplemented with 2,5-AM (4 mM and 8 mM) on Day 4 was approximately 80%. However, the survival of aged cells without 2,5-AM was approximately 50%. On Day 7, survival of 2,5-AM supplemented aged cells was approximately 75%. However, the survival of aged cells without 2,5-AM was reduced to less than 20%.
Firstly, the effect of fructose, mannitol, maltose, and sorbitol on cell growth was tested. Yeast cells were incubated with various concentrations of fructose, mannitol, maltose, and sorbitol similar to 2,5-AM in the SD medium. […] Next, the survival of chronologically aged cells on day 1, day 7, day 14, and day 21 was measured. […] Aged cells supplemented with 2,5-AM (8 mM) survived (approximately 65%) on Day 21. However, the survival of aged cells without 2,5-AM supplementation was less than 10%.

[3] = test system: wild-type Saccharomyces cerevisiae CEN.PK113-7D yeast strain; conditions: very high concentrations (18% equivalent to 1M); by increasing osmolarity; cited from earlier work
[4] = test system: prototrophic yeast strain (CEN.PK113-7D); assay: Yeast outgrowth in YPD liquid medium (CLS of aged cells); format: cell-based, Saccharomyces cerevisiae; conditions: concentration tested 100 μM; OD600 nm after 24 h in YPD at 30° C.; age point day 14
How it was run: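 Cultures aged at 30 °C in SD medium with double-diluted rapamycin (0–10 nM) or sugars/polyols (0–8 mM). On day 14, 3 µL of culture was transferred into 200 µL YPD and outgrowth read as OD600. Survival expressed relative to day 1 outgrowth (100%).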

[5] = test system: prototrophic yeast strain (CEN.PK113-7D); assay: Propidium iodide fluorescence-based CLS method in yeast (incl. high-throughput screening); format: cell-based, Saccharomyces cerevisiae; conditions: concentration tested 100 μM; for Yeast CLS increase: Yes/No call of the screen; for PI intensity: solvent DMSO or water, chronological age point Day 7 (72 h growth = Day 1), lower = more survival;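 as to PI intensity: untreated reference is eight DMSO and water control wells per plate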
How it was run: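 CEN.PK113-7D aged in SD medium at 30 °C with compounds (rapamycin 0–10 nM; sugars 0–8 mM; screen at single concentrations). At each age point cells were stained with 5 μg/mL PI for 15 min; fluorescence was normalized to OD600, background-subtracted, and survival scaled against boiled-cell control.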

human cells = assay: High-throughput chemical screening using the PI method in human cells; format: cell-based; conditions: Day 6; library tested at 1 μM; controls ranged from 4.22 to 4.53; lower = extended CLS
Method: The stock solution of rapamycin, hemin, 5-fluorouracil, atorvastatin, and methotrexate was prepared in DMSO, followed by serial dilution to form various concentrations used in the experiment. The final DMSO concentration was kept at 0.05% in all experiments. The stock solution of 2,5-anhydro-D-mannitol was prepared in D10 medium. The chemical library used in screening were tested at 1 μM concentrations. Controls used were the same as the solvent applied, DMSO or water.
The assay was performed by preparing the cells with PI (2 μg/mL or 5 μg/mL) in a D10 medium. 200 μL culture (8×10^4 cells) was seeded per well in a 96-well plate with different concentrations of the anti-aging drug (rapamycin, 2,5-AM, plicamycin, copanlisib dihydrochloride, nedaplatin, hemin, 5-fluorouracil, methotrexate, or atorvastatin) and no treatment control (DMSO). The culture plate was kept away from light throughout the experiment and incubated at 37° C. with 5% CO2. At different age time points, reading was taken with a Synergy MX microplate reader (BioTek, Winooski, Vermont, United States) at 535 nm excitation and 617 nm emission.
The PI method was used to identify additional novel anti-aging compounds that prolong CLS. A total of 162 compounds were screened, including some FDA-approved drugs and natural products. The log10 values of the PI intensity for the various control samples ranged from 4.22 to 4.53.

[6] = 0 to 8 mM in SD medium, up to day 21

Molecule: O=C(CO)[C@@H](O)[C@H](O)[C@H](O)CO [fructose, D-fructose]
- effect on yeast CLS [1, 6]: did not extend the lifespan of the yeast
- cell growth [2]: reached growth saturation after 24 hours

Molecule: OC[C@H]1O[C@H](O[C@H]2[C@H](O)[C@@H](O)[C@H](O)O[C@@H]2CO)[C@H](O)[C@@H](O)[C@@H]1O [maltose, D-maltose]
- effect on yeast CLS [1, 6]: did not extend the lifespan of the yeast
- cell growth [2]: reached growth saturation after 24 hours

Molecule: OC[C@@H](O)[C@@H](O)[C@H](O)[C@H](O)CO [mannitol, D-mannitol]
- effect on yeast CLS [1, 6]: did not extend the lifespan of the yeast
- cell growth [2]: reached growth saturation after 24 hours

Molecule: OC[C@@H](O)[C@@H](O)[C@H](O)[C@@H](O)CO [sorbitol, D-sorbitol]
- effect on yeast CLS [1, 6]: did not extend the lifespan of the yeast; also recorded: unable to increase the CLS
- effect on yeast CLS ([1]; very high concentrations, between 0.5 and 1 M): increased the CLS of yeast
- cell growth [2]: reached growth saturation after 24 hours
- effect on yeast CLS (known) [3]: increase the CLS of yeast cells

Molecule: Streptomycin (sulfate) [reference compound]
- Outgrowth [4]: 0.1
- Yeast CLS increase [5]: No
- PI intensity [5]: 60,638.5

Molecule: Vincristine (sulfate) [reference compound]
- Outgrowth [4]: 0.1
- Yeast CLS increase [5]: No
- PI intensity [5]: 62,812.1

Molecule: copanlisib dihydrochloride
- log10 PI intensity (human cells): 3.59

Molecule: plicamycin
- log10 PI intensity (human cells): 3.91
